The assay is described as follows: Tested for 50% of inhibition of Osteoclastic acid phosphatase (OAP) activity, determined using dose-response curve.
Broadly, the IC50 is the point on the concentration scale where inhibition reaches its midpoint. Low values mean greater potency, high ones weaker potency. The molecule `O=P(O)(O)C(Cc1ccc(Cl)cc1)c1cccc2ccccc12` (configuration not stated) [[2-(4-Chloro-phenyl)-1-naphthalen-1-yl-ethyl]-phosphonic acid] gave an IC50 of 21 µM.
`O=P(O)(O)C(CC1CCCCC1)c1cccc2ccccc12` (configuration not stated) [(2-Cyclohexyl-1-naphthalen-1-yl-ethyl)-phosphonic acid] yielded an IC50 of 11.4 µM.
In the case of `Cc1ccc2ccccc2c1C(CC1CCCCC1)P(=O)(O)O` (configuration not stated) [[2-Cyclohexyl-1-(2-methyl-naphthalen-1-yl)-ethyl]-phosphonic acid], the IC50 is 11 µM.
With `O=P(O)(O)C(Cc1ccccc1)c1cccc2ccccc12` (configuration not stated) [(1-Naphthalen-1-yl-2-phenyl-ethyl)-phosphonic acid], the IC50 amounted to 21 µM.
Regarding `O=P(O)(O)C(Cc1ccc(-c2ccccc2)cc1)c1cccc2ccccc12` (configuration not stated) [(2-Biphenyl-4-yl-1-naphthalen-1-yl-ethyl)-phosphonic acid], the concentration for half-maximal inhibition (IC50) came out at 6.3 µM.
Molecule `O=C(c1ccccc1)C(C(=O)c1ccccc1)(c1cccc2ccccc12)P(=O)(O)O` [2-(naphthalen-1-yl)-1,3-dioxo-1,3-diphenylpropan-2-ylphosphonic acid] registered an IC50 of 1.4 µM.
Turning to `O=P(O)(O)Cc1cccc2ccccc12` [naphthalen-1-ylmethylphosphonic acid], the half-inhibitory concentration (IC50) was 30 µM.

The values above are taken from BindingDB's records for doi:10.1016/0960-894X(95)00299-9 (1995).
